Reference: the kinase profiling compilation of Christmann-Franck et al. (2016)

Experiments:
Conditions in all cases: compound 10.0 µM
GRK1 (human) = GRK1 (human) (UniProt Q15835)
RIOK3 (human) = RIOK3 (human) (UniProt O14730)
NIM1 (human) = NIM1 (human) (UniProt Q8IY84)
MAPK6 (human) = MAPK6 (human) (UniProt Q16659)
MAP3K2 (human) = MAP3K2 (human) (UniProt Q9Y2U5)
DAPK2 (human) = DAPK2 (human) (UniProt Q9UIK4)
GRK4 (human) = GRK4 (human) (UniProt P32298)
MAP2K3 (human) = MAP2K3 (human) (UniProt P46734)
PAK6 (human) = PAK6 (human) (UniProt Q9NQU5)
DAPK1 (human) = DAPK1 (human) (UniProt P53355)
MAP3K15 (human) = MAP3K15 (human) (UniProt Q6ZN16)
Sequence of MAP3K15 (human) (Q6ZN16 whole entry, looked up): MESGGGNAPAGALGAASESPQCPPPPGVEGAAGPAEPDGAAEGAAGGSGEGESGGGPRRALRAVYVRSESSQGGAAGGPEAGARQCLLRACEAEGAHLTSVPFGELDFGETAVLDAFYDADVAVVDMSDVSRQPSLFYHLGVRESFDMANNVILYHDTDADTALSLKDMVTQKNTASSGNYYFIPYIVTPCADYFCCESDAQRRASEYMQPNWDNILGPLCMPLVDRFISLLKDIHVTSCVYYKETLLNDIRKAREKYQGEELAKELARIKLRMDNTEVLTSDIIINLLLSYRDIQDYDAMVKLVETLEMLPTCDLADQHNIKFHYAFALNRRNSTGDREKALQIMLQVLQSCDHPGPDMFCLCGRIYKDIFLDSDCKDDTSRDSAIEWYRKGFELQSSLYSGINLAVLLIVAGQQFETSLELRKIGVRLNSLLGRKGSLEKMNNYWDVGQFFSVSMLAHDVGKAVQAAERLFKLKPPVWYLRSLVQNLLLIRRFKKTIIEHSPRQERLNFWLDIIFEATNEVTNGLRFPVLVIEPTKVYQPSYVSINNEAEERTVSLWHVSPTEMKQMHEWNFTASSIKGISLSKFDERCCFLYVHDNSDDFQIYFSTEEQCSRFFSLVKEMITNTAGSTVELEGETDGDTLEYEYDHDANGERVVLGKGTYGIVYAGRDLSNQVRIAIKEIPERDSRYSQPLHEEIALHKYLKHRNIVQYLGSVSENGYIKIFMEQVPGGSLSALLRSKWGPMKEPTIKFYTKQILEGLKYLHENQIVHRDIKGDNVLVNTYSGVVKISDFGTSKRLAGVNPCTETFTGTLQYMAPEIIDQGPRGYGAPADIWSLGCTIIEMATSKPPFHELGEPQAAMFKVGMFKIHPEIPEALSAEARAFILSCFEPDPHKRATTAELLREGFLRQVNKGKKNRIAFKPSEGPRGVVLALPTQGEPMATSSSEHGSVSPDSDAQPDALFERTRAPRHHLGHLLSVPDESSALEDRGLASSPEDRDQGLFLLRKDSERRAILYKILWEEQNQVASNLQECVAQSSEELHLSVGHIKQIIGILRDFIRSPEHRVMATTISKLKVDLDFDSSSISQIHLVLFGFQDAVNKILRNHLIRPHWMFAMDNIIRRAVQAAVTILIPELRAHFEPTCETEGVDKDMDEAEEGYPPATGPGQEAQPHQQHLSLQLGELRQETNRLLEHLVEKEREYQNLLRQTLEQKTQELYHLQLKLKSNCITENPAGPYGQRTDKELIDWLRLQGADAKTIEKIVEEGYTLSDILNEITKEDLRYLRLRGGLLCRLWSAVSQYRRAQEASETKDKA

RET (human) = RET (human) (UniProt P07949)
CDKL5 (human) = CDKL5 (human) (UniProt O76039)
Sequence of CDKL5 (human) (O76039 whole entry, looked up): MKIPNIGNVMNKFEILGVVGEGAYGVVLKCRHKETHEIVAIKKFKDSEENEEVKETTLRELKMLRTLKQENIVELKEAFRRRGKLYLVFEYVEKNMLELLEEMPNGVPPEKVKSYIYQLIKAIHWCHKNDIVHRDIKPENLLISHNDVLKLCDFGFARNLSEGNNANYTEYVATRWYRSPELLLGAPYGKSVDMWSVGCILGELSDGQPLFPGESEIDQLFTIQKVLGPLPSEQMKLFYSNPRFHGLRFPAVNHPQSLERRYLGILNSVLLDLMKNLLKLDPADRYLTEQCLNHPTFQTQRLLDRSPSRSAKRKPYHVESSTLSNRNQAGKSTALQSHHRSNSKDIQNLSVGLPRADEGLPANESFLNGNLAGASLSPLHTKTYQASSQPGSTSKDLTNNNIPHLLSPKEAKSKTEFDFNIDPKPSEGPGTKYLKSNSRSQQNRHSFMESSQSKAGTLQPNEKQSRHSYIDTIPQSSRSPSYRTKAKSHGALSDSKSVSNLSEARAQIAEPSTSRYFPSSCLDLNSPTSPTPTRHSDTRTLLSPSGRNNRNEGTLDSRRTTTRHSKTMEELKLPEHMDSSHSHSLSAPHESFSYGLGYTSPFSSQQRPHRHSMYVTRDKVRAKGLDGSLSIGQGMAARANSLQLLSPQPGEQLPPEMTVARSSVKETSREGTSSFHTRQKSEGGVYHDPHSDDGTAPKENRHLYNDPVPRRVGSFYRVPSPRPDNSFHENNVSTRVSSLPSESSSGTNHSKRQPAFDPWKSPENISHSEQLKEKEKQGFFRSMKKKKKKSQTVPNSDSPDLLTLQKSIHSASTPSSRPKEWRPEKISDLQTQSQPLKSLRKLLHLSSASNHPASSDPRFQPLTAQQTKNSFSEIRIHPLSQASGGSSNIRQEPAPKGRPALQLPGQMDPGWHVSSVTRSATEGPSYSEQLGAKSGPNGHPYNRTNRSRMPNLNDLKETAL

PRKCH (human) = PRKCH (human) (UniProt P24723)
Sequence of PRKCH (human) (P24723 whole entry, looked up): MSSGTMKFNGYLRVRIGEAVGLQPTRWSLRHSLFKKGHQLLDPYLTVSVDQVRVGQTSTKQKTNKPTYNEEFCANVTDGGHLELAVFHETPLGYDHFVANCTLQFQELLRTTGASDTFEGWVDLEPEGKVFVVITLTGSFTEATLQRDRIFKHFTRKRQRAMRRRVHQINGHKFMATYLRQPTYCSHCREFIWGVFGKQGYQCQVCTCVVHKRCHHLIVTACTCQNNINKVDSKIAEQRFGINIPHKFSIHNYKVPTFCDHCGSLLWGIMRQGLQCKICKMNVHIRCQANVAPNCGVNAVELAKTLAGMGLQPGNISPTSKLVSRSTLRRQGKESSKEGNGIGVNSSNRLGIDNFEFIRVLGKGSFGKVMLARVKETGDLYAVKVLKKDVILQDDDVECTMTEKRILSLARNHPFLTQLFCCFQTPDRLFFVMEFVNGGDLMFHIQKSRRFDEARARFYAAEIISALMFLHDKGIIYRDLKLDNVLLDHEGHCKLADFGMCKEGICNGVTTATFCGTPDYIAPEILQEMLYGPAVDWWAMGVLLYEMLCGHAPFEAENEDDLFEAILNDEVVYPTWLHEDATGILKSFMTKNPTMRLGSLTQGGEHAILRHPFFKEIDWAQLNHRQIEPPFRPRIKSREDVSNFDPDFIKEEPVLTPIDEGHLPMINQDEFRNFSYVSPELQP

ROCK1 (human) = ROCK1 (human) (UniProt Q13464)
EPHA2 (human) = EPHA2 (human) (UniProt P29317)
FYN (human) = FYN (human) (UniProt P06241)
Sequence of FYN (human) (P06241 whole entry, looked up): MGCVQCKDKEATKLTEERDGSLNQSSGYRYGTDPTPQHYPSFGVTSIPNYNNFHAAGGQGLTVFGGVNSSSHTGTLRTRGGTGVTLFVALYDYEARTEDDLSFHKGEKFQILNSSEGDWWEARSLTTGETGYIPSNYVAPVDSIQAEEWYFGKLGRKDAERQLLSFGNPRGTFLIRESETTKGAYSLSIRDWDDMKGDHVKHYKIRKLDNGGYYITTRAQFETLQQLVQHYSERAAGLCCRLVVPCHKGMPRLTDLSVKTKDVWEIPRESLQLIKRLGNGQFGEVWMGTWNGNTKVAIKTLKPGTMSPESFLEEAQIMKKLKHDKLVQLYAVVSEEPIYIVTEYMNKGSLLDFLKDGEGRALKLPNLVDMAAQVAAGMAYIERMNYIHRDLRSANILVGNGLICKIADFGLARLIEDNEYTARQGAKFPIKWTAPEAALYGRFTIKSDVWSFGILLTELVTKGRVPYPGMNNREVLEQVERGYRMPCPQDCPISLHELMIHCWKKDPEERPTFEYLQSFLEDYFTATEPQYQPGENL

TAOK2 (human) = TAOK2 (human) (UniProt Q9UL54)
BMPR1B (human) = BMPR1B (human) (UniProt O00238)
MAST1 (human) = MAST1 (human) (UniProt Q9Y2H9)
[1] = target: TYK2 JH2 pseudokinase (human) (UniProt P29597)
LRRK2 (human) = LRRK2 (human) (UniProt Q5S007)
YSK4 (human) = YSK4 (human) (UniProt Q56UN5)
FGFR2 (human) = FGFR2 (human) (UniProt P21802)
RPS6KA4 KD2 (human) = RPS6KA4 KD2 (human) (UniProt O75676)
MAP3K10 (human) = MAP3K10 (human) (UniProt Q02779)
ERN1 (human) = ERN1 (human) (UniProt O75460)
FLT4 (human) = FLT4 (human) (UniProt P35916)
CSNK1G1 (human) = CSNK1G1 (human) (UniProt Q9HCP0)
BMPR1A (human) = BMPR1A (human) (UniProt P36894)
Sequence of BMPR1A (human) (P36894 whole entry, looked up): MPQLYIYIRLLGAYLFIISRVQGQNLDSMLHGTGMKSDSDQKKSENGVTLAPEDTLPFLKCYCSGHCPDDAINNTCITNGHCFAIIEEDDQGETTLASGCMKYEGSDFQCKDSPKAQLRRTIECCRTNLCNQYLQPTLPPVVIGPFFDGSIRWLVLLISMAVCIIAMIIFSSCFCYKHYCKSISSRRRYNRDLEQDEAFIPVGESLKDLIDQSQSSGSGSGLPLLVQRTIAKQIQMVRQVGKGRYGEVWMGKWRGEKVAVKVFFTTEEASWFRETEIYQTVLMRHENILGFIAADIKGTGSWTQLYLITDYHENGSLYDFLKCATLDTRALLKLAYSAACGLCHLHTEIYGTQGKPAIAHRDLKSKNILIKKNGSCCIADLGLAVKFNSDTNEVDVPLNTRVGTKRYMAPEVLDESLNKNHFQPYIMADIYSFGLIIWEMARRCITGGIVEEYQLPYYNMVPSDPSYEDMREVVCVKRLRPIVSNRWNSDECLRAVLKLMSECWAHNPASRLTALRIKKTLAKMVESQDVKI

CLK1 (human) = CLK1 (human) (UniProt P49759)
SRPK3 (human) = SRPK3 (human) (UniProt Q9UPE1)
MAP2K5 (human) = MAP2K5 (human) (UniProt Q13163)
GSK3B (human) = GSK3B (human) (UniProt P49841)
Sequence of GSK3B (human) (P49841 whole entry, looked up): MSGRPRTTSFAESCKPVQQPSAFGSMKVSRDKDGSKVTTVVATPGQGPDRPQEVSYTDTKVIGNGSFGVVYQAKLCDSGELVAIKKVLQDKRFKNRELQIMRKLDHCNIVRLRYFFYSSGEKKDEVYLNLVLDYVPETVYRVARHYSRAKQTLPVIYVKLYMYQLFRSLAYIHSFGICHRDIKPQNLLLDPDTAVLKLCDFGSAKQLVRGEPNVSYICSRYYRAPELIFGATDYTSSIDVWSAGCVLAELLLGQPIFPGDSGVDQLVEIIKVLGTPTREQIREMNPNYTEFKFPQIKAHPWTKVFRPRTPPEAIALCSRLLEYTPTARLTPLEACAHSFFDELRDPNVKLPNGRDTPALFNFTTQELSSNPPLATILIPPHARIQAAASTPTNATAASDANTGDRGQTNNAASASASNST

DYRK1A (human) = DYRK1A (human) (UniProt Q13627)
PIM2 (human) = PIM2 (human) (UniProt Q9P1W9)
CDK13 (human) = CDK13 (human) (UniProt Q14004)
PDGFRB (human) = PDGFRB (human) (UniProt P09619)
STK11 (human) = STK11 (human) (UniProt Q15831)
FER (human) = FER (human) (UniProt P16591)
EPHB6 (human) = EPHB6 (human) (UniProt O15197)
MAPK14 (human) = MAPK14 (human) (UniProt Q16539)
Sequence of MAPK14 (human) (Q16539 whole entry, looked up): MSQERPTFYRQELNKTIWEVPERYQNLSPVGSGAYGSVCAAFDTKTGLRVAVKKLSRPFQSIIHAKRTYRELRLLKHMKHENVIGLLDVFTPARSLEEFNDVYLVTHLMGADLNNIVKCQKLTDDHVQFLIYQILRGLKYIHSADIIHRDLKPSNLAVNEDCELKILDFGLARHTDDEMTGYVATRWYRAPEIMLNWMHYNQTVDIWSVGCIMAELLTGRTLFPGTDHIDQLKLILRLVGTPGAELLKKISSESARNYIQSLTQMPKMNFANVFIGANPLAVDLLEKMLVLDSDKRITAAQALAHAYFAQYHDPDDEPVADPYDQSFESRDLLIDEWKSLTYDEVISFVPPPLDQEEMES

## CNC(=O)c1cc(Oc2ccc(NC(=O)Nc3ccc(Cl)c(C(F)(F)F)c3)cc2)ccn1
GRK1 (human)
  per cent of control: 100%
RIOK3 (human)
  per cent of control: 88%
NIM1 (human)
  per cent of control: 100%
MAPK6 (human)
  per cent of control: 94%
MAP3K2 (human)
  per cent of control: 100%
DAPK2 (human)
  per cent of control: 100%
GRK4 (human)
  per cent of control: 99%
MAP2K3 (human)
  per cent of control: 93%
PAK6 (human)
  per cent of control: 86%
DAPK1 (human)
  per cent of control: 95%
MAP3K15 (human)
  per cent of control: 79%
RET (human)
  per cent of control: 0%
CDKL5 (human)
  per cent of control: 67%
PRKCH (human)
  per cent of control: 89%
ROCK1 (human)
  per cent of control: 84%
EPHA2 (human)
  per cent of control: 9%
FYN (human)
  per cent of control: 35%
TAOK2 (human)
  per cent of control: 0.65%
BMPR1B (human)
  per cent of control: 93%
MAST1 (human)
  per cent of control: 100%
[1]
  per cent of control: 93%
LRRK2 (human)
  per cent of control: 86%
YSK4 (human)
  per cent of control: 0%
FGFR2 (human)
  per cent of control: 6.4%
RPS6KA4 KD2 (human)
  per cent of control: 100%
MAP3K10 (human)
  per cent of control: 85%
ERN1 (human)
  per cent of control: 92%
FLT4 (human)
  per cent of control: 0%
CSNK1G1 (human)
  per cent of control: 100%
BMPR1A (human)
  per cent of control: 100%
CLK1 (human)
  per cent of control: 29%
SRPK3 (human)
  per cent of control: 84%
MAP2K5 (human)
  per cent of control: 0.35%
GSK3B (human)
  per cent of control: 92%
DYRK1A (human)
  per cent of control: 100%
PIM2 (human)
  per cent of control: 89%
CDK13 (human)
  per cent of control: 98%
PDGFRB (human)
  per cent of control: 0%
STK11 (human)
  per cent of control: 98%
FER (human)
  per cent of control: 77%
EPHB6 (human)
  per cent of control: 2.4%
MAPK14 (human)
  per cent of control: 0.1%

## CNC(=O)c1cc(Oc2ccc(NC(=O)Nc3ccc(Cl)c(C(F)(F)F)c3)cc2)cc[n+]1[O-]
GRK1 (human)
  per cent of control: 100%
RIOK3 (human)
  per cent of control: 73%
NIM1 (human)
  per cent of control: 100%
MAPK6 (human)
  per cent of control: 100%
MAP3K2 (human)
  per cent of control: 100%
DAPK2 (human)
  per cent of control: 100%
GRK4 (human)
  per cent of control: 100%
MAP2K3 (human)
  per cent of control: 71%
PAK6 (human)
  per cent of control: 82%
DAPK1 (human)
  per cent of control: 85%
MAP3K15 (human)
  per cent of control: 80%
RET (human)
  per cent of control: 0%
CDKL5 (human)
  per cent of control: 27%
PRKCH (human)
  per cent of control: 84%
ROCK1 (human)
  per cent of control: 23%
EPHA2 (human)
  per cent of control: 4.7%
FYN (human)
  per cent of control: 41%
TAOK2 (human)
  per cent of control: 8%
BMPR1B (human)
  per cent of control: 81%
MAST1 (human)
  per cent of control: 100%
[1]
  per cent of control: 99%
LRRK2 (human)
  per cent of control: 80%
YSK4 (human)
  per cent of control: 0.1%
FGFR2 (human)
  per cent of control: 8.9%
RPS6KA4 KD2 (human)
  per cent of control: 98%
MAP3K10 (human)
  per cent of control: 88%
ERN1 (human)
  per cent of control: 66%
FLT4 (human)
  per cent of control: 0%
CSNK1G1 (human)
  per cent of control: 96%
BMPR1A (human)
  per cent of control: 91%
CLK1 (human)
  per cent of control: 46%
SRPK3 (human)
  per cent of control: 86%
MAP2K5 (human)
  per cent of control: 0.1%
GSK3B (human)
  per cent of control: 79%
DYRK1A (human)
  per cent of control: 95%
PIM2 (human)
  per cent of control: 100%
CDK13 (human)
  per cent of control: 40%
PDGFRB (human)
  per cent of control: 0%
STK11 (human)
  per cent of control: 100%
FER (human)
  per cent of control: 64%
EPHB6 (human)
  per cent of control: 1.8%
MAPK14 (human)
  per cent of control: 0%
